ChEMBL document CHEMBL2424597, “Diarylheptanoids with inhibitory effects on melanogenesis from the rhizomes of Curcuma comosa in B16 melanoma cells” (Bioorg Med Chem Lett, 2013)

What was measured:
[1] = molecular target: T1, Tyrosinase (Agaricus bisporus) (UniProt O42713); assay: Inhibition of mushroom tyrosinase at 10 uM
T1 sequence (whole entry): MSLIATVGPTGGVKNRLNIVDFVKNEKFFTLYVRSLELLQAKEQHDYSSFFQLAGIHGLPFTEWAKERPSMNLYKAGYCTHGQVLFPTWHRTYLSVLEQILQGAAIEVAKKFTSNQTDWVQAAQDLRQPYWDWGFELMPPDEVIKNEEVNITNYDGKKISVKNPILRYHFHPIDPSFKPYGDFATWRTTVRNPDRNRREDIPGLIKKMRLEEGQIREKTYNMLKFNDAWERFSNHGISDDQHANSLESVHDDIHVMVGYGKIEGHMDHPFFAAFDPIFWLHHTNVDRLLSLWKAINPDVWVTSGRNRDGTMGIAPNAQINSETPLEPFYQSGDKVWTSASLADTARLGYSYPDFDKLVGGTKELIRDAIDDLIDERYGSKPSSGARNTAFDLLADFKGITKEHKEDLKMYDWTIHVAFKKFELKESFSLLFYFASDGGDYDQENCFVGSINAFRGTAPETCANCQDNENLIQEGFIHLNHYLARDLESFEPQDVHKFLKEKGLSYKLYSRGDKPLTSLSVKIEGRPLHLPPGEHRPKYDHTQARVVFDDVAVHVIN

[2] = Cytotoxicity against mouse B16-4A5 cells assessed as cell viability at 10 uM after 70 hrs by WST-8 assay in presence of theophylline; type: cell-based; conditions: read-out: Activity
[3] = Cytotoxicity against mouse B16-4A5 cells assessed as cell viability at 3 uM after 70 hrs by WST-8 assay in presence of theophylline; type: cell-based; conditions: read-out: Activity
[4] = Antimelanogenic activity in mouse B16-4A5 cells assessed as inhibition of theophylline-induced melanin production after 72 hrs by spectrophotometry relative to control; type: functional, cell-based; conditions: B16-4A5, 72 h
[5] = Antimelanogenic activity in mouse B16-4A5 cells assessed as inhibition of theophylline-induced melanin production at 10 uM after 72 hrs by spectrophotometry relative to control; type: functional; conditions: B16-4A5, 72 h
[6] = Antimelanogenic activity in mouse B16-4A5 cells assessed as inhibition of theophylline-induced melanin production at 3 uM after 72 hrs by spectrophotometry relative to control; type: functional; conditions: B16-4A5, 72 h
[7] = Antimelanogenic activity in mouse B16-4A5 cells assessed as inhibition of theophylline-induced melanin production at 1 uM after 72 hrs by spectrophotometry relative to control; type: functional; conditions: B16-4A5, 72 h
[8] = Antimelanogenic activity in mouse B16-4A5 cells assessed as inhibition of theophylline-induced melanin production at 0.3 uM after 72 hrs by spectrophotometry relative to control; type: functional; conditions: B16-4A5, 72 h
[9] = Antimelanogenic activity in mouse B16-4A5 cells assessed as inhibition of theophylline-induced melanin production at 0.1 uM after 72 hrs by spectrophotometry relative to control; type: functional; conditions: B16-4A5, 72 h

| SMILES | inhibition [1] [%] | viability at 70 h, 10 µM [2] [%] | viability at 70 h, 3 µM [3] [%] | IC50 [4] [µM] | inhibition at 10 µM [5] [%] | inhibition at 3 µM [6] [%] | inhibition at 1 µM [7] [%] | inhibition at 0.3 µM [8] [%] | inhibition at 0.1 µM [9] [%] |
| --- | --- | --- | --- | --- | --- | --- | --- | --- | --- |
| CC(=O)O[C@H](CCc1ccc(O)c(O)c1)C[C@H](O)CCc1ccc(O)cc1 | < 17 | 92.3 | 95.2 | 4.91 | 59.9 | 21.8 | 27.3 | 15.1 | 15.4 |
| CC(=O)O[C@H](CCc1ccc(O)c(O)c1)C[C@H](O)CCc1ccc(O)c(O)c1 | < 17 | 92.3 | 95.2 | – | 5.5 | 4.5 | -5.7 | -9.9 | -1.6 |
| Oc1ccc(CC[C@H](O)C[C@H](O)CCc2ccc(O)c(O)c2)cc1 | < 17 | 71.6 | > 91.9 | – | – | -23.7 | -10.9 | -3.7 | -0.7 |
| O=C(CC/C=C/c1ccc(O)cc1)CCc1ccc(O)cc1 | < 17 | 71.6 | > 91.9 | 1.24 | 57.1 | 61.4 | 44.9 | 29.9 | 21.2 |
| O=C(CCc1ccc(O)cc1)C[C@@H](O)CCc1ccc(O)cc1 | < 17 | – | – | – | – | – | – | – | – |
| Oc1ccc(/C=C/CC[C@@H](O)CCc2ccc(O)cc2)cc1 | 25.5 | 93 | 95.2 | 0.36 | 90.5 | 79.3 | 67.3 | 47.5 | 27.7 |
| CC(=O)O[C@H](CCc1ccc(O)cc1)C[C@@H](CCc1ccc(O)c(O)c1)OC(C)=O | < 17 | 92.3 | 95.2 | > 10 | 27.3 | 7.3 | 8.1 | 6.3 | 3.6 |
| Oc1ccc(CC[C@@H](O)C[C@H](O)CCc2ccc(O)c(O)c2)cc1 | < 17 | 92.3 | 95.2 | – | -18.9 | 0.1 | -22.7 | 8.9 | 7 |
| COc1cc(CC[C@@H](O)CC/C=C/c2ccc(O)cc2)ccc1O | < 17 | 76 | 84.6 | > 10 | 37.8 | 27.2 | 28.9 | 8.9 | 13.7 |
| O=C(/C=C/C=C/c1ccc(O)cc1)CCc1ccc(O)cc1 | 34.3 | 92.3 | 95.2 | 1.99 | 68.4 | 41.9 | 53.4 | 31.7 | 25.4 |
| Oc1ccc(CC[C@@H](O)C[C@H](O)CCc2ccc(O)cc2)cc1 [(+)-HANNOKINOL] | < 17 | 92.3 | 95.2 | > 10 | 21.9 | 23.1 | 15.7 | 20.3 | 22 |
| O=C(/C=C/C=C/c1ccc(O)c(O)c1)CCc1ccc(O)cc1 | < 17 | 92.3 | 95.2 | – | 16.3 | 23.4 | 30.5 | 37.8 | 27.8 |
| COc1cc(CC[C@@H](O)C[C@@H](O)CCc2ccc(O)cc2)cc(OC)c1O | < 17 | 92.3 | 95.2 | – | 7.2 | 25 | 23.1 | 23.2 | 11.5 |
| COc1cc(CC[C@@H](O)CC(=O)CCc2ccc(O)cc2)ccc1O | < 17 | 92.3 | 95.2 | – | -24.9 | 4.4 | 16.6 | -11.9 | 4 |
| COc1cc(CC[C@H](O)C[C@H](O)CCc2cc(OC)c(O)c(OC)c2)ccc1O | < 17 | 92.3 | 95.2 | 3 | 34.4 | 50.3 | 38.4 | 43.2 | 35.4 |
